The values that follow come from PubChem BioAssay (NCI).

Assay in all cases: NCI anticancer screen, dose series, 48 h
Test [1] relates to 786-0 renal.
For test [2], the system named is RPMI-8226 leukemia.
Test [3] has as its system HCC-2998 colon.
Test [4] concerns OVCAR-4 ovarian.
Test [5] concerns MDA-MB-231 breast.
The subject of test [6] is CAKI-1 renal.
Test [7] has as its system HT29 colon.
For test [8], the system named is T-47D breast.
The subject of test [9] is SNB-19 CNS.
Test [10] has as its system MOLT-4 leukemia.

Several values for one entry are separate records, joined by “and”; a condition that tells them apart may be missing. Equal entries are not always repeated.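 Briefly, cells in 96-well plates were exposed to five compound concentrations for 48 h, and endpoints were estimated by linear interpolation. Here, GI50 denotes the concentration required for 50% inhibition of growth. TGI denotes the concentration required for complete inhibition of growth.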 Bounds are passed on as bounds.

Turning to `CCNNC(=O)[C@@H]1[C@H](c2cc(OC)c(OC)c(OC)c2)c2cc3c(cc2[C@H](O)[C@H]1CO)OCO3`, the GI50 was 0.495 µM in [1]; 0.407 µM in [2]; 0.374 µM in [3]; 2.37 µM in test [4]; 0.5 µM in test [5]; 0.596 µM in test [6]. In addition, the GI50 is 0.351 µM in test [7], over 100 µM in [8], 0.452 µM in test [9] and 0.4 µM in test [10]. Besides, the TGI is over 100 µM in [1]; over 100 µM in [2]; over 22.2 µM in test [3]; over 100 µM in [4]; over 100 µM in test [5]; over 100 µM in test [6]. Besides, the TGI is 13 µM in test [7], over 100 µM in test [8], over 100 µM in test [9] and over 100 µM in test [10].

For `COc1cc2c3c(n(CCCBr)c(=O)c2cc1OC)-c1ccc(F)cc1C3=O`, the GI50 in [1] is 4.73 µM; in [2], 12.6 µM; in test [3], 13.7 µM; in test [4], 40 µM; in [5], 66.3 µM; in test [6], 7.9 µM. For the same compound, the GI50 in test [7] is 16.9 µM; in [8], 4.86 µM; in test [9], 6.34 µM; in test [10], 2.89 µM. In addition, the TGI in [1] was 17.9 µM; in test [2], 38.1 µM; in test [3] it was over 100 µM; in test [4] it was over 100 µM; in [5] it was over 100 µM; in test [6], 33.7 µM. In addition, the TGI in test [7] is over 100 µM; in test [8], 62 µM; in test [9], over 100 µM; in test [10], 10.6 µM.

For the compound `C[C@@H](COCCC(=O)N1CCN(c2ncc(C(F)(F)F)cn2)CC1)Nc1cn[nH]c(=O)c1C(F)(F)F`, the GI50 in test [1] was 59.1 µM; in test [2] it was 31.8 µM; in [3] it was over 100 µM; in test [4], 27.8 µM; in test [5], over 100 µM; in test [6], 14.1 µM. The GI50 in [7] is over 100 µM; in [8], 33.1 µM; in [9], 34.2 µM; in [10], 22.9 µM. For the same compound, the TGI in test [1], in test [2], in test [3], in test [4], in [5] and in [6] was over 100 µM throughout. Besides, the TGI in [7], in [8], in test [9] and in [10] was over 100 µM each time.

Regarding `Cc1nc2c(N3CCCC3)nc(N3CCNCC3)nc2nc1NCc1ccccc1`, the GI50 in test [1] was 1.62 µM; in test [2], 4.08 µM; in [4], 5.57 µM; in [5], 5.67 µM; in test [6], 4.82 µM; in [7], 1.95 µM. The results for the GI50 in test [8] and in [10] were 3.23 µM and 3.34 µM, respectively. The TGI is 10.5 µM and 3.18 µM in test [1]; 10.2 µM and 4.84 µM in test [2]; 2.95 µM in [3]; 11.7 µM and 21.7 µM in [4]; 12.1 µM and 10.1 µM in [5]; 10.6 µM and 14 µM in [6]. In addition, the TGI in test [7] is 8.36 µM and 11.7 µM; in test [8], 13.8 µM and 4.96 µM; in test [9] it was 10.6 µM and 16.3 µM; in test [10] it was 15.1 µM and > 21.2 µM.

For the compound `Cc1ccc2nc(-c3ccc(N)c4ccccc34)[nH]c2c1`, the GI50 was 0.161 µM in test [1]; 0.0298 µM in test [2]; 0.356 µM in test [3]; 8.58 µM in test [4]; 0.0899 µM in [5]; 0.405 µM in [6]. Also, the GI50 was 0.361 µM in [7], 9.1 µM in test [8], 0.721 µM in test [9] and 1.36 µM in test [10]. In addition, the TGI in test [1] was 20.9 µM; in [2] it was 0.934 µM; in test [3], 12.1 µM; in [4] it was over 100 µM; in [5], 13.3 µM; in test [6] it was 5.62 µM. The TGI is over 100 µM in test [8], over 44.7 µM in test [9] and 17.3 µM in test [10].

Consider `O=C(CCSc1ccnc2c(C(F)(F)F)cccc12)N/N=C/c1cc(Cl)c(Cl)cc1Cl`, for which the GI50 was 20.3 µM in test [1]; 19 µM in [2]; 34.6 µM in [3]; 25.4 µM in test [4]; 16.8 µM in test [5]; 21.4 µM in test [6]. The GI50 in test [7] is 17.8 µM; in test [8], 22 µM; in [9] it was 21.9 µM; in test [10], 32.2 µM. For the same compound, the TGI in [1] was 35.1 µM; in test [2], 52.7 µM; in test [3], over 100 µM; in test [4] it was 64.2 µM; in test [5], 32.6 µM; in test [6], 43.4 µM. For the same compound, the TGI in test [7] came to 33.9 µM; in test [8], 59.9 µM; in test [9], 48.5 µM; in test [10], 98.8 µM.

For the compound `CC(C)C[C@H](NC(=O)[C@H](Cc1cccc2ccccc12)NS(=O)(=O)c1cccc2cccnc12)B(O)O`, the GI50 in test [1] is 0.0495 µM; in test [2], 0.000296 µM; in test [3] it was 0.0174 µM; in test [6], 0.032 µM; in test [7] it was 0.000937 µM; in test [8], 0.000928 µM. Besides, the GI50 in test [10] was 0.000334 µM. Also, the TGI was 12.8 µM in [1]; 0.000934 µM in test [2]; 0.0149 µM and 0.0389 µM in test [3]; 0.173 µM in test [4]; 0.0567 µM and 0.0597 µM in test [5]; 0.198 µM and 1.19 µM in test [6]. In addition, the TGI was 0.022 µM in [7]; 0.0269 µM and < 0.0218 µM in [8]; over 35.3 µM in [9]; 0.00228 µM in test [10].

For the compound `O=C(COc1cccc(/C=C2\Oc3ccc4ccccc4c3C2=O)c1)c1ccc(Cl)cc1`, the GI50 in [1] was 4.54 µM; in [2], 1.66 µM; in test [3], over 100 µM; in test [4], 5.56 µM; in test [5], 43.5 µM; in test [6], over 100 µM. The GI50 in test [7] was over 100 µM; in test [8], 15.3 µM; in [9] it was over 100 µM; in test [10], 3.13 µM. For the same compound, the TGI in test [1] is 19 µM; in test [2], 6.62 µM; in [3] it was over 100 µM; in test [4] it was over 100 µM; in [5], over 100 µM; in test [6], over 100 µM. Besides, the TGI was over 100 µM in test [7], 52.4 µM in test [8], over 100 µM in test [9] and 11.1 µM in [10].

Take `CCOc1nccc2c1nc(-c1nonc1N)n2CC`: the GI50 in test [1], in [2], in test [3], in test [4], in [5] and in test [6] was over 25 µM throughout. Also, the GI50 in [7], in [8], in test [9] and in test [10] was over 25 µM in each case. Also, the TGI in test [1], in test [2], in [3], in test [4], in test [5] and in test [6] was over 25 µM in each case. Besides, the TGI in test [7], in test [8], in test [9] and in [10] was over 25 µM in each case.

For the compound `CC(C)C[C@H](NC(=O)CCn1ccc2ncccc2c1=O)B(O)O`, the GI50 in test [1] was 14 µM; in test [2], 2.82 µM; in test [3], 12.9 µM; in test [4], 24.9 µM; in [5], 9.73 µM; in test [6], 21.6 µM. Moreover, the GI50 is 6.28 µM in [7], 5.31 µM in [8], 32.6 µM in test [9] and 2.9 µM in test [10]. In addition, the TGI is over 100 µM in test [1]; over 27 µM in test [2]; 30.2 µM in [3]; over 100 µM in test [4]; 46.6 µM in test [5]; over 100 µM in test [6]. Also, the TGI was over 100 µM in test [7], over 55 µM in [8], over 100 µM in [9] and over 28.7 µM in test [10].

Consider `COc1cc(F)c(/C=C/c2cc(/C=C/c3cc(OC)c(OC)cc3F)n(-c3cc(F)cc(F)c3)n2)cc1OC`, for which the GI50 in test [1] was 1.63 µM; in test [2] it was 3.75 µM; in test [3], 6.18 µM; in [4], 1.97 µM; in [5], 2.62 µM; in [6], 12.8 µM. In addition, the GI50 in [7] was 2.27 µM; in [8], 3.46 µM; in [9] it was 2.37 µM; in [10], 6.64 µM. Moreover, the TGI turned out to be 3.22 µM in test [1]; 41.4 µM in test [2]; 47.9 µM in test [3]; 5.75 µM in test [4]; 8.86 µM in [5]; 34.4 µM in test [6]. In addition, the TGI in test [7] is 6.81 µM; in test [8] it was 20.7 µM; in [9], 5.52 µM; in test [10] it was over 100 µM.

As to `CCc1ccc2nccc(NCCCN(C)C)c2c1[N+](=O)[O-]`, the TGI in test [1], in [2], in [3], in test [4], in test [5] and in test [6] was over 100 µM throughout. Further, the TGI in [7], in test [8], in test [9] and in [10] was over 100 µM throughout.

On to `Nc1ccc(C(OC(=O)c2cc3ccccc3c(Cc3c(O)c(C(=O)OC(c4ccc(N)cc4)(c4ccc(N)cc4)c4ccc(N)cc4)cc4ccccc34)c2O)(c2ccc(N)cc2)c2ccc(N)cc2)cc1`, for which the GI50 was 1.76 µM in test [1]; 0.476 µM in [2]; 1.83 µM in test [3]; 2.03 µM in [4]; 2.8 µM in test [5]; 13.6 µM in test [6]. Moreover, the GI50 is 1.79 µM in test [7], 0.405 µM in test [8], 0.444 µM in [9] and 4.33 µM in test [10]. Also, the TGI in test [1] is 20.2 µM; in test [2], over 100 µM; in test [3] it was 15.5 µM; in test [4] it was 56.6 µM; in test [5], 8.76 µM; in test [6], over 100 µM. Besides, the TGI stood at 11.6 µM in [7], 18.9 µM in test [8], 20.7 µM in test [9] and 86.1 µM in test [10].

As for `Cc1cnccc1N=Nc1ccc(N(C)C)cc1`, the TGI in test [1] is over 100 µM; in [2], 48.3 µM; in test [3] it was 49.6 µM; in test [4], 61.2 µM; in test [5] it was 70.6 µM; in [6], over 100 µM. Moreover, the TGI is 53.9 µM in [7], over 100 µM in test [8], over 100 µM in [9] and 79.5 µM in [10].

On to `Nc1nccc2c1ncn2C1OC(CO)C(O)C1O` (centres undefined), for which the GI50 in test [1], in [2], in test [3], in test [4], in test [5] and in [6] was over 100 µM each time. For the same compound, the GI50 in test [7], in test [8], in test [9] and in [10] was over 100 µM each time. In addition, the TGI in test [1], in [2], in test [3], in [4], in [5] and in test [6] was over 100 µM in each case. Moreover, the TGI in [7], in test [8], in test [9] and in test [10] was over 100 µM in each case.
